# Activity calls are given as the source filed them. The calls are words filed in the database; no cut-off is given here.
# What was measured:
# MCF7 [1] = assay: Induction of apoptosis in human MCF7 cells assessed as activation of caspase 9 at 3 times IC50 after 16 to 36 hrs by immunoblotting; format: functional, cell-based
# [2] = molecular target: Cellular tumor antigen p53 (Homo sapiens) (UniProt P04637); assay: Induction of p53 activation in human MCF7 cells assessed as phosphorylation at Ser15 at 3 times IC50 after 4 to 36 hrs by Western blot analysis; format: cell-based
# Chain of Cellular tumor antigen p53 (Homo sapiens) (P04637 whole entry, looked up): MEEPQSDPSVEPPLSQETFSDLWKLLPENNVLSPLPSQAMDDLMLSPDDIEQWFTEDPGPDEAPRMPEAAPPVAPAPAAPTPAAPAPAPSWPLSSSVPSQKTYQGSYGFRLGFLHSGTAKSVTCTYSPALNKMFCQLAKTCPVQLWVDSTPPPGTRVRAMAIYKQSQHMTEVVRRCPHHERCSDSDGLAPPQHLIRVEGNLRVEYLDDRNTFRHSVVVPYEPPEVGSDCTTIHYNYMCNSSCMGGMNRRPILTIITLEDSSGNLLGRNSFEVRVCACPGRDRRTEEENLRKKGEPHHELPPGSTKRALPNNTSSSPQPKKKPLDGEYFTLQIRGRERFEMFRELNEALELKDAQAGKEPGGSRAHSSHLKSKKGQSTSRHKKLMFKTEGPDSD
# MCF7 [3] = assay: Antiproliferative activity against human MCF7 cells after 3 days by sulforhodamine-B colorimetric assay; format: functional, cell-based; conditions: MCF7, 72 h
# MCF7 [4] = assay: Cell cycle arrest in human MCF7 cells assessed as accumulation at G0/G1 phase after 48 hrs by flow cytometry (reference value: 62.79 +/- 1.30 %); format: functional
# MCF7 [5] = assay: Cell cycle arrest in human MCF7 cells assessed as accumulation at […] phase after 48 hrs by flow cytometry (reference value: 19.29 +/- 1.68 %); format: functional
# MCF7 [6] = assay: Cell cycle arrest in human MCF7 cells assessed as accumulation at G2/M phase after 48 hrs by flow cytometry (reference value: 13.26 +/- 2.98 %); format: functional
# MCF7 [7] = assay: Induction of apoptosis in human MCF7 cells at 3 times IC50 after 48 hrs by using Annexin V-FITC staining by flow cytometry (reference value: 0.92 +/- 1.29 %); format: functional
# [8] = molecular target: Eukaryotic translation initiation factor 2 subunit 1 (Homo sapiens) (UniProt P05198); assay: Induction of eIF2alpha phosphorylation in human MCF7 cells at 3 times IC50 after 36 hrs by Western blot analysis; format: cell-based
# Chain of Eukaryotic translation initiation factor 2 subunit 1 (Homo sapiens) (P05198 whole entry): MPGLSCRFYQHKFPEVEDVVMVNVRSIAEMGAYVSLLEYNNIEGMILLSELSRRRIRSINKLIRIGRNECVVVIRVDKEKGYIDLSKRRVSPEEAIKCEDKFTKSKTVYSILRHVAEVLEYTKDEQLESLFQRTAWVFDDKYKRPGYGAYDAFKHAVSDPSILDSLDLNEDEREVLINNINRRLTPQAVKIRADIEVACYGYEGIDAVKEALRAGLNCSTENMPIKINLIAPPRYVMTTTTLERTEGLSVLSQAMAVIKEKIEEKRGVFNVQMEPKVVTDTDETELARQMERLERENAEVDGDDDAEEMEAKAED
Activity [2],IC50 (MCF7 [3]) [µM],Activity [8],Compound,Activity (MCF7 [1]),Activity (MCF7 [4]) [%],Activity (MCF7 [5]) [%],Activity (MCF7 [6]) [%],Activity (MCF7 [7]) [%]
–,8.97,–,Clc1nc(Cl)c2ncn(CC3COc4ccccc4S3)c2n1 (racemic),–,–,–,–,–
inactive,4.87,Active,Brc1ncnc2c1ncn2CC1CSc2ccccc2O1 (racemic),Active,51.56,17.06,31.37,14.33
–,> 30,–,Nc1ncnc2c1ncn2CC1CSc2ccccc2O1 (racemic),–,–,–,–,–
–,19.6,–,Clc1nc(Cl)c2ncn(CC3COc4ccccc4O3)c2n1 (racemic),–,–,–,–,–

# The next lines start with the compound.
Compound,Activity [2],IC50 (MCF7 [3]) [µM],Activity [8],Activity (MCF7 [1]),Activity (MCF7 [4]) [%],Activity (MCF7 [5]) [%],Activity (MCF7 [6]) [%],Activity (MCF7 [7]) [%]
CC(=O)O[C@H]1C(=O)[C@@]2(C)[C@H]([C@H](OC(=O)c3ccccc3)[C@]3(O)C[C@H](OC(=O)[C@H](O)[C@@H](NC(=O)c4ccccc4)c4ccccc4)C(C)=C1C3(C)C)[C@]1(OC(C)=O)CO[C@@H]1C[C@@H]2O,inactive,–,–,Active,–,–,–,–
Clc1ncnc2c1ncn2CC1COc2ccccc2S1 (racemic),–,10.6,–,–,–,–,–,–
Brc1ncnc2c1ncn2CC1COc2ccccc2S1 (racemic),–,6.18,–,–,–,–,–,–
Clc1ncnc2c1ncn2CC1CSc2ccccc2O1 (racemic),inactive,9.24,Active,Active,62.87,13.77,23.35,37.99
Clc1nc(Cl)c2ncn(CC3CSc4ccccc4O3)c2n1 (racemic),inactive,2.75,Active,Active,45.28,10.83,43.89,70.08
Clc1ncnc2c1ncn2CC1COc2ccccc2O1 (racemic),–,18.8,–,–,–,–,–,–
Brc1ncnc2c1ncn2CC1COc2ccccc2O1 (racemic),–,7.64,–,–,53.02,10.27,36.71,21.66
Nc1ncnc2c1ncn2CC1COc2ccccc2O1 (racemic),–,> 30,–,–,–,–,–,–

# — ChEMBL document CHEMBL1821645, “Synthesis and anticancer activity of (RS)-9-(2,3-dihydro-1,4-benzoxaheteroin-2-ylmethyl)-9H-purines” (Eur J Med Chem, 2011)
